Values of other authors as cited in patent US10011626B2, “Method for the purification of decitabine” (Johnson Matthey Public Limited Company, priority 2012, dated 2018).

solubility in 1,1,1,3,3,3-hexafluoro-2-propanol (solvent: 1,1,1,3,3,3-hexafluoro-2-propanol, slightly soluble): about 18 mg/mL
solubility in methyl sulfoxide (solvent: methyl sulfoxide): approximately 37 mg/mL
solubility in water (solvent: water, sparingly soluble): about 8 mg/mL
Structure (SMILES): Nc1ncn([C@H]2CC(O)[C@@H](CO)O2)c(=O)n1 (stereo partly drawn) [decitabine, 4-amino-1-(2-deoxy-β-D-erythropentofuranosyI)-1,3,5-triazin-2-(1H)-one]
